According to patent US5693844A, “2-cyano-3-hydroxy-propenamides” (Roussel UCLAF, priority 1995, dated 1997):
Read-outs that look alike come from different tables or passages of the source.

Biological target: T1, human DHO-DH (Homo sapiens, UniProt Q02127)
T1 construct: The spleen tissue was chopped and then homogenized with a teflon glass homogenizer; from tissue; host or cells: human spleen, crude membrane preparation
Test: Dihydroorotate Dehydrogenase (DHO-DH) Assay: DCIP-linked inhibition of human spleen membrane DHO-DH
Assay type: biochemical
Conditions: human spleen membranes, 90 min preincubation at 37° C., pH 8.0, 500 μM dihydroorotate, 100 μM coenzyme Q10, 200 μM DCIP, loss of absorbance at 650 nm
Excerpt: Human spleen membrane DHO-DH catalyzed conversion of dihydroorotate to orotate is accompanied by reduction of coenzyme Q10. Reoxidation of coenzyme Q10 is linked to reduction of dichlorophenolindophenol and is monitored as a loss of absorbance at 650 nm. The rate of loss in absorbance is a direct measurement of the rate of the DHO-DH enzyme catalyzed reaction.
Crude membrane preparations were made using a modification of a published differential centrifugation procedure. All procedures were carried out on ice or at a temperature of 4° C. using pre-cooled buffers and equipment.
The spleen tissue was chopped and then homogenized with a teflon glass homogenizer (about 10 passes at 250 rpm) in 10 volumes of a homogenization buffer (10 mM Tris-HCl containing 0.25M sucrose, 10 μg/ml soybean trypsin inhibitor, 2 μg/ml aprotinin, pepstatin A and leupeptin pH 7.4). The homogenate was centrifuged at ^~ 470 g for 10 minutes and the supernatant was saved. Pellets were resuspended in 4-6 volumes of homogenization buffer using 5 passes of the teflon glass homogenizer (250 rpm) and centrifuged for 10 minutes at ^~ 470 g. The supernatant was combined with that from the first centrifugation step (post nuclear fraction) and the pellets containing nuclei and tissue debris were discarded. The post nuclear supernatant was centrifuged at 125,000 g for 40 minutes. The pellets were resuspended in homogenization buffer (2 ml/g wet tissue) using about 10 passes of the teflon glass homogenizer. Aliquots of the preparation were stored at -80° C.
Membranes (0.33-0.5 mg protein) were incubated with 100 μM coenzyme Q10 in 50 mM Tris-HCl, 0.1% Triton X-100, 1 mM KCN pH 8.0. Following a 90 minute preincubation at 37° C., the reaction was initiated by addition of 500 μM of dihydroorotate and the reduction of DCIP (200 μM) was monitored by loss of absorbance at 650 nm using a 96-well plate reader at 37° C. Drug concentrations increased in half log unit or full log unit intervals with each concentration tested at least in triplicate.

T1 sequence (Q02127 whole entry): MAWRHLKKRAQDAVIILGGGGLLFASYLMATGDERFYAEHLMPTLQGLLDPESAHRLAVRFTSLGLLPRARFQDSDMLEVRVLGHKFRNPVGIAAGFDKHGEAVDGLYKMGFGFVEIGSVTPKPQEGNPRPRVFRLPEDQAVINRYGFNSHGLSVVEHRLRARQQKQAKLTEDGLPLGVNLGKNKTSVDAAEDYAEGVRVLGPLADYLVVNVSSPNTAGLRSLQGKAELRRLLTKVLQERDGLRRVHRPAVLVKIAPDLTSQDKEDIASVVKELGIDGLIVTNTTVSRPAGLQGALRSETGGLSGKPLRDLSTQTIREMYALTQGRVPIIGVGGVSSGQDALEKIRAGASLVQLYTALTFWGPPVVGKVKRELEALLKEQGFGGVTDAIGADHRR

IC50 (read-out: IC50) [nM]	SMILES	IC50 [nM]
1950 to 2100	N#Cc1ccc(NC(=O)C(C#N)C(=O)C2CC2)cc1 (stereo not shown) [A]	
> 100	C#CC(=O)C(C#N)C(=O)Nc1ccc(C(F)(F)F)cc1 (stereo not shown) [B]	
	CC=CC(=O)C(C#N)C(=O)Nc1ccc(C(F)(F)F)cc1 (stereo not shown) [C]	79.4
300	N#CC(C(=O)Nc1ccc([S+]([O-])C(F)(F)F)cc1)=C(O)C1CC1 (stereo not shown) [Example 2, N-(4'-trifluoromethylsulfinyl-phenyl)-2-cyano-3-cyclopropyl-3-hydroxy-prop-2-enamide]	
